According to US20260062422A1 (Halda Therapeutics OpCo, Inc., priority 2022, published 2026):

What was measured:
VCaP cells = assay: Cellular growth inhibition assay for VCaP cells, CellTiter-Glo; type: cell-based, human; conditions: 72 hours treatment, CellTiter-Glo 2.0
Procedure, shortened: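 GI50 values come from four-parameter curve fits of luminescence data normalized to a zero baseline. Compound, in medium with 0.5% DMSO, was added one day after plating and left for 72 h before CellTiter-Glo 2.0 addition.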

T47D cells = assay: Cellular growth inhibition assay for T47D cells, CellTiter-Glo; type: cell-based, human; conditions: 72 hours treatment, CellTiter-Glo 2.0 cell viability
Procedure, shortened: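 Luminescence from CellTiter-Glo 2.0 after 72 h of compound exposure gives the viability signal. Cells grew in insulin-supplemented (0.2 units/mL) DMEM with 10% FBS and were treated one day after seeding at 0.5% DMSO. GI50 values come from four-parameter nonlinear regression.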

[1] = system: T-Rex 293 cell line SC3 cells lacking increased expression of androgen receptor protein; assay: Cellular growth inhibition, T-Rex 293 SC3 cells without doxycycline, CellTiter-Glo; type: cell-based; conditions: T-Rex 293 SC3 cells not exposed to doxycycline, CellTiter-Glo 2.0
Procedure, shortened: (§1)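 SC3 is a T-Rex 293 clone stably transfected with wild-type androgen receptor in pcDNA4/TO, inducible by 10 ng/mL doxycycline. Cells were grown in phenol red-free DMEM with 10% charcoal-dextran FBS, with or without doxycycline, dosed 24 h after seeding (0.5% DMSO) for 72 h. Viability was read by CellTiter-Glo 2.0 luminescence and GI50 obtained from four-parameter fits.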

[2] = system: T-Rex 293 cell line SC3 cells having increased expression of androgen receptor protein due to exposure to doxycycline; assay: Cellular growth inhibition, T-Rex 293 SC3 cells with doxycycline (androgen receptor induced), CellTiter-Glo; type: cell-based; conditions: T-Rex 293 SC3 cells with 10 ng/mL doxycycline (increased androgen receptor expression)
Procedure, shortened: as §1

GI50 (VCaP cells; Homo sapiens, VCaP, 72 h) [nM]	GI50 (T47D cells; Homo sapiens, T47D, 72 h) [nM]	GI50 (VCaP cells) [nM]	GI50 (T47D cells) [nM]	Structure (SMILES)	GI50 ([1]; 72 h) [nM]	GI50 ([2]; 72 h) [nM]	GI50 ([1]; 72 hours) [nM]	GI50 ([2]; 72 hours) [nM]
< 500	> 3000	–	–	Cc1sc2c(c1C)C(c1ccc(CC3CCN(c4ncc(C(=O)N[C@H]5C(C)(C)[C@H](Oc6ccc(C#N)c(Cl)c6)C5(C)C)cn4)CC3)cc1)=N[C@@H](C)c1nnc(C)n1-2 [Compound I-557]	< 500	< 500	–	–
< 500	> 3000	–	–	COC[C@@H]1N=C(c2ccc(OC3CC4(CCCN(c5ncc(C(=O)N[C@H]6C(C)(C)[C@@H](Oc7ccc(C#N)c(Cl)c7)C6(C)C)cn5)C4)C3)cc2)c2c(sc(C)c2C)-n2c(C)nnc21 [Compound I-567]	> 3000	< 500	–	–
< 500	< 500	–	–	COC[C@@H]1N=C(c2ccc(OC3CC4(CCCN(c5ncc(C(=O)N[C@H]6C(C)(C)[C@H](Oc7ccc(C#N)c(Cl)c7)C6(C)C)cn5)C4)C3)cc2)c2c(sc(C)c2C)-n2c(C)nnc21 [Compound I-568]	> 3000	< 500	–	–
–	–	< 500	> 3000	COCC[C@@H]1N=C(c2ccc(OC3CC4(CCCN(c5ncc(C(=O)N[C@H]6C(C)(C)[C@@H](Oc7ccc(C#N)c(Cl)c7)C6(C)C)cn5)C4)C3)cc2)c2c(sc(C)c2C)-n2c(C)nnc21 [Compound I-570]	–	–	> 3000	< 500
< 500	< 500	–	–	CC[C@@H]1N=C(c2ccc(C#CC3CC4(C3)CN(c3cnc(C(=O)N[C@H]5C(C)(C)[C@H](Oc6ccc(C#N)c(Cl)c6)C5(C)C)cn3)C4)cc2)c2c(sc(C)c2C)-n2c(C)nnc21 [Compound I-583]	500 to 1500	< 500	–	–
< 500	< 500	–	–	COCC[C@@H]1N=C(c2ccc(OC3CC4(C3)CC3(CCN(c5ncc(C(=O)N[C@H]6C(C)(C)[C@H](Oc7ccc(C#N)c(Cl)c7)C6(C)C)cn5)CC3)C4)cc2)c2c(sc(C)c2C)-n2c(C)nnc21 [Compound I-584]	> 3000	< 500	–	–
< 500	> 3000	–	–	CC[C@@H]1N=C(c2ccc(CC3CC4(CCN(c5ncc(C(=O)N[C@H]6C(C)(C)[C@H](Oc7ccc(C#N)c(Cl)c7)C6(C)C)cn5)CC4)C3)cc2)c2c(sc(C)c2C)-n2c(C)nnc21 [Compound I-596]	> 3000	< 500	–	–
< 500	< 500	–	–	CC[C@@H]1N=C(c2ccc(CC3CC4(CCN(c5cnc(C(=O)N[C@H]6C(C)(C)[C@H](Oc7ccc(C#N)c(Cl)c7)C6(C)C)cn5)CC4)C3)cc2)c2c(sc(C)c2C)-n2c(C)nnc21 [Compound I-597]	> 3000	> 3000	–	–
< 500	< 500	–	–	CC[C@@H]1N=C(c2ccc(CC3CC4(CCN(c5ccc(C(=O)N[C@H]6C(C)(C)[C@H](Oc7ccc(C#N)c(Cl)c7)C6(C)C)cn5)CC4)C3)cc2)c2c(sc(C)c2C)-n2c(C)nnc21 [Compound I-598]	> 3000	< 500	–	–

Second part, the compound before the results:

Structure (SMILES)	GI50 (VCaP cells; Homo sapiens, VCaP, 72 h) [nM]	GI50 (T47D cells; Homo sapiens, T47D, 72 h) [nM]	GI50 (VCaP cells) [nM]	GI50 (T47D cells) [nM]	GI50 ([1]; 72 h) [nM]	GI50 ([2]; 72 h) [nM]	GI50 ([1]; 72 hours) [nM]	GI50 ([2]; 72 hours) [nM]
COC[C@@H]1N=C(c2ccc(OC3CC4(CCN(c5ncc(C(=O)N[C@H]6C(C)(C)[C@H](Oc7ccc(C#N)c(Cl)c7)C6(C)C)cn5)CC4)C3)cc2)c2c(sc(C)c2C)-n2c(C)nnc21 [Compound I-565]	< 500	1500 to 3000	–	–	> 3000	< 500	–	–
COCC[C@@H]1N=C(c2ccc(OC3CC4(CCN(c5ncc(C(=O)N[C@H]6C(C)(C)[C@H](Oc7ccc(C#N)c(Cl)c7)C6(C)C)cn5)CC4)C3)cc2)c2c(sc(C)c2C)-n2c(C)nnc21 [Compound I-566]	< 500	> 3000	–	–	> 3000	< 500	–	–
COCC[C@@H]1N=C(c2ccc(OC3CC4(CCCN(c5ncc(C(=O)N[C@H]6C(C)(C)[C@@H](Oc7ccc(C#N)c(Cl)c7)C6(C)C)cn5)C4)C3)cc2)c2c(sc(C)c2C)-n2c(C)nnc21 [Compound I-569]	< 500	> 3000	–	–	> 3000	< 500	–	–
Cc1sc2c(c1C)C(c1ccc(C3CC(N4CCN(c5ncc(C(=O)N[C@H]6C(C)(C)[C@H](Oc7ccc(C#N)c(Cl)c7)C6(C)C)cn5)CC4)C3)cc1)=N[C@@H](C)c1nnc(C)n1-2 (stereo partly shown) [Compound I-571]	< 500	< 500	–	–	500 to 1500	< 500	–	–
Cc1sc2c(c1C)C(c1ccc(C3CC(N4CCN(c5ccc(C(=O)N[C@H]6C(C)(C)[C@H](Oc7ccc(C#N)c(Cl)c7)C6(C)C)cn5)CC4)C3)cc1)=N[C@@H](C)c1nnc(C)n1-2 (stereo partly shown) [Compound I-572]	< 500	< 500	–	–	< 500	< 500	–	–
Cc1sc2c(c1C)C(c1ccc(C3CC(N4CCN(c5cnc(C(=O)N[C@H]6C(C)(C)[C@H](Oc7ccc(C#N)c(Cl)c7)C6(C)C)cn5)CC4)C3)cc1)=N[C@@H](C)c1nnc(C)n1-2 (stereo partly shown) [Compound I-573]	< 500	< 500	–	–	500 to 1500	< 500	–	–
CC[C@@H]1N=C(c2ccc(C#CC3CC4(C3)CN(c3ncc(C(=O)N[C@H]5C(C)(C)[C@H](Oc6ccc(C#N)c(Cl)c6)C5(C)C)cn3)C4)cc2)c2c(sc(C)c2C)-n2c(C)nnc21 [Compound I-576]	500 to 1500	< 500	–	–	500 to 1500	< 500	–	–
Cc1sc2c(c1C)C(c1ccc(C3CC(N4CCN(c5ccc(C(=O)N[C@H]6C(C)(C)[C@H](Oc7ccc(C#N)c(Cl)c7)C6(C)C)nc5)CC4)C3)cc1)=N[C@@H](C)c1nnc(C)n1-2 (stereo partly shown) [Compound I-577]	< 500	< 500	–	–	500 to 1500	< 500	–	–
Cc1sc2c(c1C)C(c1ccc(N3CCC4(C3)CN(c3cnc(C(=O)N[C@H]5C(C)(C)[C@H](Oc6ccc(C#N)c(Cl)c6)C5(C)C)cn3)C4)cc1)=N[C@@H](C)c1nnc(C)n1-2 [Compound I-578]	< 500	< 500	–	–	> 3000	> 3000	–	–
COCC[C@@H]1N=C(c2ccc(CC3CC4(CCN(c5ncc(C(=O)N[C@H]6C(C)(C)[C@H](Oc7ccc(C#N)c(Cl)c7)C6(C)C)cn5)CC4)C3)cc2)c2c(sc(C)c2C)-n2c(C)nnc21 [Compound I-585]	< 500	< 500	–	–	> 3000	< 500	–	–
COCC[C@@H]1N=C(c2ccc(CC3CC4(CCN(c5cnc(C(=O)N[C@H]6C(C)(C)[C@H](Oc7ccc(C#N)c(Cl)c7)C6(C)C)cn5)CC4)C3)cc2)c2c(sc(C)c2C)-n2c(C)nnc21 [Compound I-586]	< 500	< 500	–	–	> 3000	< 500	–	–
Cc1sc2c(c1C)C(c1ccc(N3C[C@@]4(F)CN(c5ncc(C(=O)N[C@H]6C(C)(C)[C@H](Oc7ccc(C#N)c(Cl)c7)C6(C)C)cn5)C[C@@]4(F)C3)cc1)=N[C@@H](C)c1nnc(C)n1-2 [Compound I-587]	< 500	< 500	–	–	> 3000	< 500	–	–
Cc1sc2c(c1C)C(c1ccc(CC3CC4(CCN(c5ccc(C(=O)N(C)[C@H]6C(C)(C)[C@H](Oc7ccc(C#N)c(Cl)c7)C6(C)C)cn5)CC4)C3)cc1)=N[C@@H](C)c1nnc(C)n1-2 [Compound I-589]	< 500	500 to 1500	–	–	> 3000	< 500	–	–
Cc1sc2c(c1C)C(c1ccc(C3CN(C(=O)C4CCN(c5ncc(C(=O)N[C@H]6C(C)(C)[C@H](Oc7ccc(C#N)c(Cl)c7)C6(C)C)cn5)CC4)C3)cc1)=N[C@@H](C)c1nnc(C)n1-2 [Compound I-590]	< 500	< 500	–	–	< 500	< 500	–	–
CC[C@@H]1N=C(c2ccc(N3CC(CC4CCN(c5ncc(C(=O)N[C@H]6C(C)(C)[C@H](Oc7ccc(C#N)c(Cl)c7)C6(C)C)cn5)CC4)C3)cc2)c2c(sc(C)c2C)-n2c(C)nnc21 [Compound I-593]	< 500	< 500	–	–	> 3000	< 500	–	–
CC[C@@H]1N=C(c2ccc(N3CC(CC4CCN(c5cnc(C(=O)N[C@H]6C(C)(C)[C@H](Oc7ccc(C#N)c(Cl)c7)C6(C)C)cn5)CC4)C3)cc2)c2c(sc(C)c2C)-n2c(C)nnc21 [Compound I-594]	> 3000	1500 to 3000	–	–	> 3000	> 3000	–	–
CC[C@@H]1N=C(c2ccc(N3CC(C4CCN(c5ncc(C(=O)N[C@H]6C(C)(C)[C@H](Oc7ccc(C#N)c(Cl)c7)C6(C)C)cn5)CC4)C3)cc2)c2c(sc(C)c2C)-n2c(C)nnc21 [Compound I-595]	< 500	> 3000	–	–	> 3000	< 500	–	–
COCC[C@@H]1N=C(c2ccc(CC3CC4(CCN(c5ccc(C(=O)N[C@H]6C(C)(C)[C@H](Oc7ccc(C#N)c(Cl)c7)C6(C)C)cn5)CC4)C3)cc2)c2c(sc(C)c2C)-n2c(C)nnc21 [Compound I-599]	< 500	< 500	–	–	> 3000	< 500	–	–
Cc1sc2c(c1C)C(c1ccc(OC3CC4(CCN(c5ncc(C(=O)N[C@H]6C(C)(C)[C@H](Oc7ccc(C#N)c(Cl)c7)C6(C)C)cn5)CC4)C3)cc1)=NC(C(F)(F)F)c1nnc(C)n1-2 (stereo partly shown) [Compound I-600]	–	> 3000	> 3000	–	> 3000	> 3000	–	–
